# In patent publication US9109041B2, “Analog compounds of analgesic peptides derived from the venom of crotalus durissus terrificus snakes, their uses, compositions, methods of preparation and purification” (priority 2004, dated 2015):
# Assays:
# [1] = tested on: spontaneous pain induced by constriction of the sciatic nerve; assay: spontaneous pain induced by constriction of the sciatic nerve (licking and lifting time); type: in vivo, rat; details: 5 μg/kg p.o.
# Protocol: For the induction of neuropathic pain, surgery was performed in the sciatic nerve, in accordance with the method described by Bennett, G. J and Xie, Y. K. (Pain, 33:87-107, 1988). The animals were anesthetized with halothane. The sciatic nerve was exposed in the middle region of the thigh, moving away the femoral biceps muscle. Close to the trifurcation of the sciatic nerve, 7 mm of distance from the trifurcation, 4 loose ligations were performed (chromed catgut 4-0) around it, distant from each other in approximately 1 mm. The bindings were performed along the nerve, up to 4-5 mm from the initial point. The incision was sutured in layers, using silk suture thread number 4-0.
# For the observation of the signs that characterize spontaneous pain, the animals were placed one by one, in a transparent plastic box. After the acclimatizing period of 30 minutes, the rats were observed during 10 minutes, determining the duration of the licking (in seconds) and lifting time. The licking and lifting activities, performed as part of the normal grooming behavior of animals, were not considered.
# [2] = tested on: spontaneous pain induced by the Walker 256 tumor; assay: spontaneous pain induced by the Walker 256 tumor (lifting, licking); type: in vivo, rat; details: 6 μg/kg p.o.
# From the text: The Walker 256 tumor cells were kindly provided by Prof. Dr. Rui Curi, of the Physiology and Biophysics Department of the Biomedical Science Institute of the University of São Paulo. The tumor-bearing animal was sacrificed and the tumoral tissue was removed, placed on a Petri dish containing 0.9% saline. Then, the tumor was cut in smaller parts, and transferred into a beaker containing saline. The material was triturated with a fine-cut, until the tumor is totally fragmented. Then, this material was filtered in gauze and the liquid collected in a beaker. All procedures were performed on ice. The material of the beaker was transferred to 50 ml plastic tubes and centrifuged at 4° C., for 10 minutes, at 1200 rpm. After centrifugation, the supernatant was rejected and the precipitate resuspended in saline 0.9%. For cell counts, the suspension of cells was diluted (1:100) in saline. An aliquot (200 μl) was removed and placed in a test tube containing 200 μl of 1% Trypan blue. The cell number was determined in optical microscope using Neubauer's chamber. The cellular viability was determined considering viable the light-refracting cells.
# After determining the number of cells, 1 ml of the suspension, containing 1×10^7 cells, was injected by intraperitoneal route, on the right side of the rats to obtain liquid tumor (ascites).
# Five days after injection, the rats with ascites were sacrificed and the ascetic fluid collected from the peritoneal cavity and placed in a test tube containing EDTA. The liquid was diluted 100 times with phosphate-buffered saline (PBS), pH 7.4. The cell count was done after dilution with Trypan blue, as described above. Tumor cell count was ascertained to 1×10^6 cells in 100 μl, by dilution with PBS. This number of cells was determined in preliminary tests for induction of cancer pain in rats. In this final cell number adjustment, the volume of antibiotic (Benzetacil®) added to the suspension (150,000 units of antibiotic/10 ml of suspension), was taken into consideration. The antibiotic was used in order to avoid microbial contamination. The cells were injected by intraplantar route into one of the rat hind paws. Control animals were injected with PBS into the contralateral paw, in the same experimental conditions.
# Hyperalgesia, allodynia and spontaneous pain were determined before (BM-basal measurement) and 5 days after tumor cell injection, before (IM-initial measurement) and 2 hours after (FM-Final measurement) peptide administration.
# The results were analyzed comparing the mean values of the basal and initial measurements, or of the initial and final measurements or, when determined, by comparing the mean values obtained in the different experimental groups (Tables 17, 18, 19).
# [3] = tested on: thermal nociception (hot plate 50° C.); assay: hot plate test; type: in vivo, mice; details: for latency time (reaction time), FM (s) ± S.E.M.: 2 hours after treatment; for latency time (reaction time), IM (s) ± S.E.M.: before treatment
# Protocol: This test is used for evaluation of drugs that interfere with nociception in the Central Nervous System, as for example, morphine and derived products, since the thermal stimulus activates directly the nociceptor, avoiding tissue lesion and consequent inflammation. The data obtained in this test indicate that the antinociceptive effect of a compound is mainly due to a supraspinally integrated response.
# This test was performed in accordance to the method described by Jacob, J. J. C. and Ramabadran, K. (Br. J. Pharmacol., 64:91-8, 1978). For this test, mice were placed on a metal surface kept at 50° C.±1. Results are expressed as the latency time (in seconds—s) to observe the licking of both anterior feet (reaction time). This test was applied before (initial measurement—IM) and 2 hours after the treatment of the animals (final measurement—FM) with saline (control) or with the synthetic peptide (1 and 3 μg/kg in 200 μl), orally. Each animal was considered as their own control. The results were analyzed comparing the mean values of the IM and FM or, when determined, by comparing the mean values obtained in the different experimental groups (Table 22).
# [4] = day 14 after surgery, before peptide, 10 min observation
# [5] = 5th day after tumor implantation, 2 hours after peptide
# [6] = 5th day after tumor implantation, before peptide
substance,measurement,setting,value
Xaa-Phe-Ser-Pro-Glu-Asn-Cys-Gln-Gly-Glu-Ser-Gln-Pro-Cys [SEQ ID NO: 2],"lifting time, FM 1 h",[1]; 1 h after peptide,2 ± 0.21 s
same,"paw licking time, FM 1 h",[1]; 1 h after peptide,2 ± 0.21 s
same,"lifting time, FM 3 h",[1]; 3 h after peptide,2 ± 0.26 s
same,"paw licking time, FM 3 h",[1]; 3 h after peptide,2 ± 0.21 s
same,"lifting time, FM 24 h",[1]; 24 h after peptide,2 ± 0.22 s
same,"paw licking time, FM 24 h",[1]; 24 h after peptide,2 ± 0.39 s
same,"lifting time, FM 48 h",[1]; 48 h after peptide,1.0 ± 0.16 s
same,"paw licking time, FM 48 h",[1]; 48 h after peptide,1.5 ± 0.22 s
same,"lifting time, FM 72 h",[1]; 72 h after peptide,2 ± 0.26 s
same,"paw licking time, FM 72 h",[1]; 72 h after peptide,1.5 ± 0.22 s
same,"lifting time, FM 96 h",[1]; 96 h after peptide,1.5 ± 0.16 s
same,"paw licking time, FM 96 h",[1]; 96 h after peptide,21 ± 0.26 s
same,"lifting time, FM 120",[1]; 120 h after peptide,95 ± 0.50 s
same,"paw licking time, FM 120",[1]; 120 h after peptide,21 ± 0.38 s
same,"lifting time, IM",[1]; [4],97 ± 0.43 s
same,"paw licking time, IM",[1]; [4],22 ± 0.64 s
same,"Licking duration, FM",[2]; [5],1.6 ± 0.81 s
same,"Lifting duration, FM",[2]; [5],25 ± 7.72 s
same,"Licking duration, IM",[2]; [6],15 ± 1.46 s
same,"Lifting duration, IM",[2]; [6],204 ± 30.74 s
same,"Licking duration, BM",[2]; before injection of the tumor,0 ± 0.00 s
same,"Lifting duration, BM",[2]; before injection of the tumor,0 ± 0.00 s
same,"latency time (reaction time), FM (s) ± S.E.M.",[3]; 1 μg/kg p.o.,25 ± 0.68 s
same,"latency time (reaction time), IM (s) ± S.E.M.",[3]; 1 μg/kg p.o.,18 ± 0.64 s
same,"latency time (reaction time), FM (s) ± S.E.M.",[3]; 3 μg/kg p.o.,27 ± 1.06 s
same,"latency time (reaction time), IM (s) ± S.E.M.",[3]; 3 μg/kg p.o.,22 ± 1.01 s
